Reference: article PMC2997425, “Acetazolamide-based fungal chitinase inhibitors” (Bioorganic & Medicinal Chemistry, 2010)
Counter-ions that a name gives are not always drawn. Like-named read-outs stand apart in the source and are kept apart here.

What was measured:
AfChiA1 = AfChiA1 (Aspergillus fumigatus, UniProt Q873Y0); assay: biochemical; format: biochemical; conditions: for inhibition at 1000 µM: read-out: % inhibition at 1 mM
hCHT (human chitinase) = hCHT (human chitinase) (Homo sapiens, UniProt Q13231); assay: hCHT (human chitinase) inhibition; format: biochemical
hevamine = target: hevamine; parameters: method as in PMID 10922481; conditions: read-out: Ki against hevamine; cited from earlier work
[1] = Table 3, 4-parameter logistic fit
[2] = human chitinase, read-out: hCHT IC50

Chain of AfChiA1 (Q873Y0 29-335): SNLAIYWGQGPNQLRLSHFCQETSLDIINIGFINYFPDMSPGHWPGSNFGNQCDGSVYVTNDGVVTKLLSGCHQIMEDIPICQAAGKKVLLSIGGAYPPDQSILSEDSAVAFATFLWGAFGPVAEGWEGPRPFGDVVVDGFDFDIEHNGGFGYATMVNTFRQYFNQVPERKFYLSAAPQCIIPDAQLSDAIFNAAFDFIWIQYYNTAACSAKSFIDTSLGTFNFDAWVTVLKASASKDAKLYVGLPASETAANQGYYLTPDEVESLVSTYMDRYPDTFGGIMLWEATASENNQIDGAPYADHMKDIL
Chain of hCHT (human chitinase) (Q13231 22-466): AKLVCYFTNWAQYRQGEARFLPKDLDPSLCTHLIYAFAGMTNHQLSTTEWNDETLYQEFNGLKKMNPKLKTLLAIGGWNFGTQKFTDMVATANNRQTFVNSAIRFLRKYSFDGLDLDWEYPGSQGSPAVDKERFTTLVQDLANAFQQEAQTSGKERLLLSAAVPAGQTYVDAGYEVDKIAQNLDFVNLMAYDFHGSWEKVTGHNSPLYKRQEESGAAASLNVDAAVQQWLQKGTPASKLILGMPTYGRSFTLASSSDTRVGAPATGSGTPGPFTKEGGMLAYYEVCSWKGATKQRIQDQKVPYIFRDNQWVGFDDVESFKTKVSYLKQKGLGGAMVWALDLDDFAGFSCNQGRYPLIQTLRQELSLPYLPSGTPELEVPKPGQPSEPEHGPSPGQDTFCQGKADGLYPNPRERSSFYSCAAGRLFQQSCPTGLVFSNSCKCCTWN

SMILES: CC(=O)Nc1nncs1 (as salt: salt) [Compound 7, 5-acetamido-1,3,4-thiadiazole]
- melting point: 276 to 277 °C

SMILES: c1coc(CNc2ncnc3[nH]cnc23)c1 [Kinetin, reference compound]
- inhibitory activity against AfChiA1 (in words) (AfChiA1): failed to show any discernable effect
- IC50 (hCHT (human chitinase)): > 1000 µM

SMILES: COc1cccc(CSc2nnc(NC(C)=O)s2)c1 [Compound 14]
- inhibition at 1000 µM (AfChiA1): 38%

SMILES: CC(=O)Nc1nnc(S)s1 [Compound 9, 5-Acetamido-2-thiol-1,3,4-thiadiazole]
- Hill slope (AfChiA1; [1]): 1.1

SMILES: CC(=O)Nc1nnc(-c2ccccc2)s1 [Compound 10]
- Hill slope (AfChiA1; [1]): 0.5

SMILES: CC(C)Cc1nnc(NC(=O)CCl)s1 [Compound 20]
- inhibitory activity against AfChiA1 (in words) (AfChiA1): reduction in activity

SMILES: CC(=O)N[C@H]1[C@H](O[C@H]2[C@@H](O)[C@@H](NC(C)=O)[C@H](O[C@H]3[C@H](O)[C@H]4N=C(N(C)C)O[C@H]4[C@@H]3CO)O[C@@H]2CO)O[C@H](CO)[C@@H](O)[C@H]1O [Allosamidin, reference compound]
- Hill slope (AfChiA1; Fig. 1, triplicate, four-parameter logistic fit): 0.9
- Ki (hevamine): 3.1 µM

SMILES: CC(=O)Nc1nnc(C)s1 [Compound 8]
- inhibitory activity against AfChiA1 (in words) (AfChiA1): abrogate activity

SMILES: Cn1c(=O)c2[nH]c(Cl)nc2n(C)c1=O [8-Chloro-theophylline, 8-chlorotheophylline, reference compound]
- Hill slope (AfChiA1): 1.0
- IC50 (hCHT (human chitinase); [2]): > 2500 µM

SMILES: CC(=O)Nc1nnc(C(F)(F)F)s1 [Compound 11]
- Hill slope (AfChiA1; [1]): 1.1

SMILES: CC(=O)Nc1nnc(Br)s1 [Compound 12]
- Hill slope (AfChiA1; [1]): 0.7

SMILES: O=C(Nc1nnc(N2CCN(c3cccc(Cl)c3)CC2)s1)C(F)(F)F [Compound 17]
- inhibition at 1000 µM (AfChiA1): 30%

SMILES: NS(=O)(=O)c1nnc(NC(=O)c2ccccc2)s1 [Compound 5, 5-benzylamido-2-sulfamoyl-1,3,4-thiadiazole]
- Hill slope (AfChiA1; [1]): 0.5
- inhibition at 1000 µM (AfChiA1): 51%

SMILES: O=C(CCl)Nc1nnc(C(F)(F)F)s1 [Compound 21]
- inhibitory activity against AfChiA1 (in words) (AfChiA1): reduction in activity

SMILES: Nc1nnc(S(N)(=O)=O)s1 [Compound 6, 5-amino-2-sulfamoyl-1,3,4-thiadiazole monohydrochloride]
- inhibitory activity against AfChiA1 (in words) (AfChiA1): abolishes inhibitory activity

SMILES: CC(=O)Nc1nncs1 [Compound 7, 5-acetamido-1,3,4-thiadiazole]
- inhibitory activity against AfChiA1 (in words) (AfChiA1): abrogate activity

SMILES: O=C(Nc1nnc(-c2ccccc2)s1)C(F)(F)F [Compound 15]
- Hill slope (AfChiA1): 1.2
- inhibition at 1000 µM (AfChiA1): 85%

SMILES: CCC(=O)Nc1nnc(S(N)(=O)=O)s1 [Compound 2, 5-propylamido-2-sulfamoyl-1,3,4-thiadiazole]
- Hill slope (AfChiA1): 0.71
- inhibitory activity against AfChiA1 (in words) (AfChiA1): reduction in activity
- inhibition at 1000 µM (AfChiA1): 76%

SMILES: CC(=O)Nc1nnc(S(N)(=O)=O)s1 [Compound 1, acetazolamide]
- IC50 (hCHT (human chitinase); [2]): > 1000 µM
